We go through 1 compound from PMC9645260, “Small-molecule inhibitors of P-Rex guanine-nucleotide exchange factors” (Small GTPases, 2022).

Holding throughout (format): biochemical
The target of one experiment is T1, Ect2 (DHPH) (Homo sapiens, UniProt Q9H8V3).
T1 construct: The ITSN1 DHPH domains and Ect2 DHPH domains, produced in and purified from bacteria; host or cells: bacteria
T1 sequence (Q9H8V3 452-794 limits assumed): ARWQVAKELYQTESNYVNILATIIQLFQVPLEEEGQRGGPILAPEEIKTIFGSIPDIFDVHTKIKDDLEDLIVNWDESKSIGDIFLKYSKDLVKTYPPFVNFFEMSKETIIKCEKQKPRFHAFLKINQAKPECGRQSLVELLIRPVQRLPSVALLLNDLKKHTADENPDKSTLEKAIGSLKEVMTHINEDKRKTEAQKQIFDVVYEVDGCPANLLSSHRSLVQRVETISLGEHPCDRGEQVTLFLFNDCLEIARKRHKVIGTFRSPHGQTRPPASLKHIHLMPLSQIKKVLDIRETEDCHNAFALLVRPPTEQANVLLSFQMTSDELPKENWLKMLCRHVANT
Put plainly: Liposome-based GEF activity assay, Ect2. To be noted: 10 µM, 500 nM ECT2 DHPH. The protocol:
(§1) Full-length N-terminally EE-tagged P-Rex1, P-Rex2, the P-Rex1 DH and DHPH domains and the P-Rex2 DH domain were produced in Sf9 cells using baculoviral transduction and were purified using anti-EE beads, as previously described. Briefly, frozen pellets from 500 ml of Sf9 culture infected with P-Rex expressing high-titre baculovirus were resuspended in ice-cold lysis Sf9-cell lysis buffer 2 (1x PBS, 1% Triton X-100, 5 mM EGTA, 1 mM EDTA, 25 mM NaF, 20 mM β-glycerophosphate, 1 mM DTT, 100 µM PMSF, 10 μg/ml each of leupeptin, pepstatin A, aprotinin and antipain) for 5 min and then ultracentrifuged at 118,000 × g for 1 h at 4°C. Supernatants were incubated with pre-washed anti-EE beads for 90 min on ice with end-over-end rotation. […] Protein concentration and purity were determined by coomassie staining of SDS-PAGE gels. […]
(§2) Liposome-based GEF activity assays were carried out essentially as described, except that GEFs were incubated with inhibitor compounds prior to the assay. […] Small GTPases were isolated using anti-EE antibody-coupled Sepharose beads or glutathione Sepharose beads, as appropriate, by incubation on ice for 90 min with end-over-end rotation, four washes in ice-cold wash buffer and resuspension of beads in Ultima Gold scintillation fluid (Perkin Elmer). ^35S-GTPγS incorporation was assessed by scintillation counting (Packard 1600TR, Liquid Scintillation Analyser).

In a further experiment the target is T2, P-Rex2 DH domain (Homo sapiens, UniProt Q70Z35).
T2 construct: constitutive Rac-GEF activity of the isolated P-Rex2 DH domain (by 92%); made in house; host or cells: Sf9 cells (baculovirus)
T2 sequence (Q70Z35 23-214 limits assumed): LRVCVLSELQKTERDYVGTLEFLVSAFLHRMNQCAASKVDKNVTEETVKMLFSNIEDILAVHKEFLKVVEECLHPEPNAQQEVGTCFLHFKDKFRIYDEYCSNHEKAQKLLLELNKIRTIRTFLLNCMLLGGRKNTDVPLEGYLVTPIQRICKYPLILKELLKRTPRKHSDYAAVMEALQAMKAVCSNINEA
Put plainly: Liposome-based GEF activity assay, isolated P-Rex2 DH domain. To be noted: 200 nM DH domain, read-out: inhibition of constitutive Rac-GEF activity of isolated P-Rex2 DH domain. The protocol: as §1, §2

In the next experiment the target is T3, full-length P-Rex2 (Homo sapiens, UniProt Q70Z35).
T3 construct: Full-length N-terminally EE-tagged P-Rex1, P-Rex2; made in house; host or cells: Sf9 cells (baculovirus)
T3 sequence (Q70Z35 whole entry): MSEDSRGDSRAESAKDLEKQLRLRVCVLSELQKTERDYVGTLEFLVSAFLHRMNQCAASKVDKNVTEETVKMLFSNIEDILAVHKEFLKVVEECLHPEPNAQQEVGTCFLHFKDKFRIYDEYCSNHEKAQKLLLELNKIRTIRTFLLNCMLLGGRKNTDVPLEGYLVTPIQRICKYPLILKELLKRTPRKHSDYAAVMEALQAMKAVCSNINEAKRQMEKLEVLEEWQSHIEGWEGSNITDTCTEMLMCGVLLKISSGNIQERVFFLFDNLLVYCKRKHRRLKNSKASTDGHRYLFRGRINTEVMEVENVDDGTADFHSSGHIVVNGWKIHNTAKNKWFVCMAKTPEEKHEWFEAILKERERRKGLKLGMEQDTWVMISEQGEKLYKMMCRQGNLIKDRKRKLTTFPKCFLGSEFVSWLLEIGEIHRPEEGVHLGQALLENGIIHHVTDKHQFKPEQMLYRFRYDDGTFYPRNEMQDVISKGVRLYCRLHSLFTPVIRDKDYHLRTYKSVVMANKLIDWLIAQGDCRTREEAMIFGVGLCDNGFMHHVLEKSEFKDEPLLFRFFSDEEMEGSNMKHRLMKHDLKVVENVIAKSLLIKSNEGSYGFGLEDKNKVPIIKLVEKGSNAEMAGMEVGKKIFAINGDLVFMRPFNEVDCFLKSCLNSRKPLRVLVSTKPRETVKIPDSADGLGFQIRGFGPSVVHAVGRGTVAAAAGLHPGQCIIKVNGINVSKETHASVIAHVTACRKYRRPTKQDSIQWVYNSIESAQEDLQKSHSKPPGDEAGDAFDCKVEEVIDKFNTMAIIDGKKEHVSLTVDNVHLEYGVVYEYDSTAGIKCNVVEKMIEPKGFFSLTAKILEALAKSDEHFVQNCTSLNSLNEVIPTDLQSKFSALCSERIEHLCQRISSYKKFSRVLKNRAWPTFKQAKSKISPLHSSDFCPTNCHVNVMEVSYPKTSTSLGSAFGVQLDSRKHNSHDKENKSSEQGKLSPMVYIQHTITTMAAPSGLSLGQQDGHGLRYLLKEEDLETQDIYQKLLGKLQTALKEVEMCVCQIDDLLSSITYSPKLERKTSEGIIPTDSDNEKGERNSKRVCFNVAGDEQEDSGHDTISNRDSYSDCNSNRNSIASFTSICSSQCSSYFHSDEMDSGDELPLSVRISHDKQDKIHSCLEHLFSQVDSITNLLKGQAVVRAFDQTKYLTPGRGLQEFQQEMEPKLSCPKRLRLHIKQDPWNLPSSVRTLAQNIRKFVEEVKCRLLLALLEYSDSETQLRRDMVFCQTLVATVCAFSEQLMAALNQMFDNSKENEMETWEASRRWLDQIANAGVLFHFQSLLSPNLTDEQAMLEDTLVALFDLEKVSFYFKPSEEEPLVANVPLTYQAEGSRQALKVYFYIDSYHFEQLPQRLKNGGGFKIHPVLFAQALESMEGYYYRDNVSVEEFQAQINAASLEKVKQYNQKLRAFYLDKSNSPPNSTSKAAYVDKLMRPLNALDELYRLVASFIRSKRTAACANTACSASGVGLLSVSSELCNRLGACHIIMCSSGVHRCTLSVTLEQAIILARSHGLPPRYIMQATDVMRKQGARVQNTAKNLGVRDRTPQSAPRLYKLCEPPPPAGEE
The experiment can be described thus: Liposome-based GEF activity assay, PIP3-stimulated full-length P-Rex2. To be noted: 40 nM P-Rex2, read-out: inhibition of PIP3-stimulated Rac-GEF activity of full-length P-Rex2. The protocol:
as §1, §2

In general, inhibition refers to the drop in the measured response relative to a control, in per cent. With `COc1ccc(-c2[nH]nc3c2C(c2ccc(-c4ccc(Cl)cc4)o2)C(C#N)=C(N)O3)cc1` (stereo not drawn) [PREX-in1, 6-amino-4-[5-(4-chlorophenyl)-2-furyl]-3-(4-methoxyphenyl)-2,4-dihydropyrano[2,3-c]pyrazole-5-carbonitrile], at Ect2 (DHPH), the “effect on GEF activity of Ect2” value is “none of the other GEFs were affected”. The inhibition at 10 µM worked out at 92% at P-Rex2 DH domain and 82% at full-length P-Rex2.
